Measurements as given in patent US9808954B2, “Composition of a timber formulation comprising Cu salts and organic cyclic ingredients for the preservation of timber for decks” (Rutgers Organics GmbH, priority 2014, dated 2017).

Tests used:
coniophora puteana = test: EN113 test after EN84 washing, pine timber, coniophora puteana; type: cell-based
Procedure: (§1) Timber pieces were positioned in a treating vessel. Over a period of 30 minutes a pressure of 0.1 bar was applied. The treating solution containing a Product was sucked into the vessel. Then the pressure in the vessel was increased to 10 bar at 25° C. for 90 minutes. Afterwards the pressure was set to ambient pressure and the remainder of the treating solution was removed. The impregnated timber pieces were dried at ambient temperature.
(§2) In both tables 13 and 14 the standard applied is EN113. Prior to EN113, the timber was washed according to EN84. The type of timber used was pine.
(§3) Tables 13 and 14 show the average retention of the active ingredient (AI) in Product C when it is exposed to both “poria placenta” (table 13) and “coniophora puteana” (table 14). Comparisons are also made with retention values of DPAB and the azol (triadimefon) in the timber. Average AI retention values are required in order to pass the EN113 Standard.
(§4) In both tables 15 and 16 the standard applied is EN113. Prior to EN113, the timber was washed according to EN84. The type of timber used was pine.
(§5) As for product C, tables 15 and 16 show the average retention of the active ingredient (AI) in Product D when it is exposed to both “poria placenta” (table 15) and “coniophora puteana” (table 16). Comparisons are also made with retention values of DPAB and the azol (cyproconazol) in the timber. […]

poria placenta = test: EN113 test after EN84 washing, pine timber, poria placenta; type: cell-based
Procedure: as §1, §2, §3, §4, §5

## di-decyl-poly-oxethyl-ammoninum borate [DPAB TGAI]
Coniophora puteana; coniophora puteana (Table 14)
  Average DPAB retention in timber: 7.40 kg/m^3
Coniophora puteana; coniophora puteana (Table 16)
  Average DPAB retention in timber: 7.40 kg/m^3
Poria placenta; poria placenta (Table 13)
  Average DPAB retention in timber: 4.50 kg/m^3
Poria placenta; poria placenta (Table 15)
  Average DPAB retention in timber: 4.50 kg/m^3
